The results in this text go back to patent US11773071B2, “Benzothiazepine compounds and their use as bile acid modulators” (Albireo AB, priority 2019, dated 2023).

The IC50 is the point on the concentration scale where inhibition reaches its midpoint. A word on the Papp A→B: it is how fast a substance crosses the layer from the apical side. Low readings indicate poor permeation, high ones ready permeation.

One series deals with T1, Human LBAT (Homo sapiens, UniProt Q14973).
T1 construct: expressed in transfected cells; Geneticin-selected
T1 sequence (Q14973 1-349): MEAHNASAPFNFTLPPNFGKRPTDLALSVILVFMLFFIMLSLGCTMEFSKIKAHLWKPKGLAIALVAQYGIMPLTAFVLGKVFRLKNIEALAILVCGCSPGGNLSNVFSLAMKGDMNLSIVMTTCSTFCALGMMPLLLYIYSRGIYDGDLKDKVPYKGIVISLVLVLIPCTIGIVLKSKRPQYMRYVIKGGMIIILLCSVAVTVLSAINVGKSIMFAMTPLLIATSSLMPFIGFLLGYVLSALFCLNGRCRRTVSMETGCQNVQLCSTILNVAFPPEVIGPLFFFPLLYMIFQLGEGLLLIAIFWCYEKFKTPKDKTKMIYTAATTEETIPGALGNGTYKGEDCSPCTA
The experiment in a line: LBAT (h/m) assay, human LBAT-overexpressing cells, 3H-taurocholic acid uptake. It counts as cell-based. Conditions: 0.3 μM 3H-taurocholic acid and 7.5 μM cold taurocholic acid, 20 minutes, read-out: hLBAT IC50. The procedure, abridged:
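Human LBAT-overexpressing cells, washed in FBS-free MEM-alpha, incubated 20 min at 37 °C with 10-point 3-fold inhibitor dilutions (0.2% DMSO final), 0.3 μM 3H-taurocholic acid plus 7.5 μM cold taurocholic acid (mouse LBAT: 25 μM cold). Ice stop, chilled 1 mM taurocholate washes; uptake read by scintillation counting.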

A short description of series [1]: Bidirectional permeability assay (Caco-2 cells). The format is in vitro ADME. Conditions: human, Caco-2, absorptive direction (A2B), 10 μM in FaSSIF buffer. The protocol:
Bidirectional Permeability Assay (Caco-2 Cells)
Caco-2 cells (Evotec) were seeded at a density of 70,000 cells/well in Millicell® 24-well cell culture insert plates and maintained in an incubator (37° C., 5% CO2, 95% RH) for 21 days with media change on alternate days.
Stock solutions (10 mM) of the test compounds, atenolol (low permeability marker), propranolol (high permeability marker) and digoxin (substrate for P-gp transport pathway) were prepared in dimethylsulfoxide (DMSO). An intermediate stock solution (1 mM) was prepared by diluting 10 μL of 10 mM master stock solution with 90 μL of neat DMSO. A working stock solution (10 μM) was prepared by diluting 50 μL of 1 mM with 4950 μL of FaSSIF buffer. Post addition of compounds to the FaSSIF, samples were subjected to sonication for 2 hours, and centrifuged at 4000 RPM for 30 minutes at 37° C. The 4 mL of resultant supernatant was directly used in the assay. The final DMSO concentration in the transport experiments was 1%.
On the day of assay, Caco-2 monolayers were washed twice with transport buffer (HBSS, pH 7.4) and pre-incubated for 30 min (37° C., 5% CO2, 95% RH) in an incubator. The electrical resistance of the monolayers was measured with a Millicell®—ERS system. Monolayers with trans-epithelial electrical resistance (TEER) values greater than 350 ohm·cm^2 were selected for the assay.
The assay was conducted in absorptive direction (A2B) and secretory (B2A) directions. Transport experiments were initiated by addition of transport assay buffer (FaSSIF buffer prepared in HBSS) consisting of compounds to the donor compartment (apical chamber A-B; basolateral chamber B-A) in duplicate (n=2) wells. Drug free HBSS buffer (pH 7.4) containing 1% bovine serum albumin (BSA) was introduced to the receiver (A-B-basolateral; B-A-Apical) compartments. The volumes of apical and basolateral compartments were 0.4 and 0.8 mL, respectively. After adding dosing solution, plates were incubated in an incubator for 120 minutes at 37° C. After 120 minutes, donor and receiver samples were collected and matrix matched (1:1, 30 μL study sample+30 μL blank buffer) with the opposite buffer. Dosing samples matrix matched (1:1, 30 μL study sample+30 μL blank buffer) with the opposite buffer. Samples were processed by adding acetonitrile containing internal standard (60 μL study sample+200 μL acetonitrile containing internal standard—Tolbutamide, 500 ng/mL). Samples were vortexed and centrifuged at 4000 rpm for 10 minutes. The obtained supernatant (100 μL) was diluted with 100 μL of water and transferred to fresh 96 well plates. The concentration of compounds in the samples was analyzed by liquid chromatography tandem mass spectrometry (LC-MS/MS) method using discovery grade bio-analytical method, as applicable.
The mean apparent permeability (Papp,×10^−6 cm/sec) of the test compounds, atenolol, propranolol and digoxin were calculated as follows:
[formula] where dq/dt=rate of transport (rate of transport of compound in the receiver compartment), C0=initial concentration in the donor compartment, A=surface area of the effective filter membrane.

Regarding `CCCCC1(CC)CN(c2ccccc2)c2cc(Br)c(OCCC(=O)O)cc2S(=O)(=O)C1` (racemic) [Example 1, 3-((7-Bromo-3-butyl-3-ethyl-1,1-dioxido-5-phenyl-2,3,4,5-tetrahydro-1,5-benzothiazepin-8-yl)oxy)propanoic acid], the IC50 on Human LBAT was determined as 2170 nM. Moreover, the apparent permeability from apical to basolateral (Papp A→B) at 120 min, 10 μM in series [1] was determined as 13.4 ×10⁻⁶ cm/s.

As to `CCCCC1(CCCC)CN(c2ccccc2)c2cc(SC)c(OCC(O)C(=O)O)cc2S(=O)(=O)C1` (racemic) [Example 9, 3-((3,3-Dibutyl-7-(methylthio)-1,1-dioxido-5-phenyl-2,3,4,5-tetrahydro-1,5-benzothiazepin-8-yl)oxy)-2-hydroxypropanoic acid], on Human LBAT, the half-maximal inhibitory concentration (IC50) amounted to 396 nM. This compound yielded an apical-to-basolateral permeability (Papp A→B) at 120 min, 10 μM in series [1] of 1.6 ×10⁻⁶ cm/s.

Take `CCCCC1(C)CN(c2ccccc2)c2cc(N(C)C)c(OCCC(=O)O)cc2S(=O)(=O)C1` (single isomer, unassigned) [29, enantiomer 1]: the 50% inhibitory concentration (IC50) at Human LBAT was determined as 2590 nM. This compound also showed an apparent permeability from apical to basolateral (Papp A→B) at 120 min, 10 μM in series [1] of 20.5 ×10⁻⁶ cm/s.

In the case of `CCCCC1(CC)CN(c2ccccc2)c2cc(Cl)c(OC(C)CC(=O)O)cc2S(=O)(=O)C1` (single isomer, unassigned) [30, diastereomer 1], the IC50 at Human LBAT was 283 nM. Moreover, the Papp A→B at 120 min, 10 μM in series [1] was found to be 9 ×10⁻⁶ cm/s.

In the case of `CCCCC1(C)CN(c2ccccc2)c2cc(SC)c(OCC(O)C(=O)O)cc2S(=O)(=O)C1` (single isomer, unassigned) [32, diastereomer 1], the 50% inhibitory concentration (IC50) on Human LBAT is 2950 nM. For the same compound, the Papp A→B at 120 min, 10 μM in series [1] was found to be 3.3 ×10⁻⁶ cm/s.

Consider `CCCCC1(CC)CN(c2ccccc2)c2cc(SC)c(OCC(C)(F)C(=O)O)cc2S(=O)(=O)C1` (single isomer, unassigned) [35, diastereomer 1], for which the IC50 on Human LBAT stood at 48 nM. In addition, in series [1], the apparent permeability from apical to basolateral (Papp A→B) at 120 min, 10 μM was 4 ×10⁻⁶ cm/s.

As for `CCCCC1(CC)CN(c2ccccc2)c2cc(SC)c(OCC(C)(O)C(=O)O)cc2S(=O)(=O)C1` (single isomer, unassigned) [48, diastereomer 2], the half-maximal inhibitory concentration (IC50) at Human LBAT amounted to 155 nM. In addition, the apical-to-basolateral permeability (Papp A→B) at 120 min, 10 μM in series [1] stood at 3.2 ×10⁻⁶ cm/s.

For the compound `CCCCC1(CC)CN(c2ccccc2)c2cc(Br)c(OCCC(=O)O)cc2S(=O)(=O)C1` (single isomer, unassigned) [Example 2, 3-((7-bromo-3-butyl-3-ethyl-1,1-dioxido-5-phenyl-2,3,4,5-tetrahydro-1,5-benzothiazepin-8-yl)oxy)propanoic acid], on Human LBAT, the concentration for half-maximal inhibition (IC50) is 375 nM. Moreover, the Papp A→B at 120 min, 10 μM in series [1] was found to be 3.4 ×10⁻⁶ cm/s.

For the compound `CCCCC1(CC)CN(c2ccccc2)c2cc(Cl)c(OCCC(=O)O)cc2S(=O)(=O)C1` (single isomer, unassigned) [Example 6, 3-((3-butyl-7-chloro-3-ethyl-1,1-dioxido-5-phenyl-2,3,4,5-tetrahydro-1,5-benzothiazepin-8-yl)oxy)propanoic acid], on Human LBAT, the IC50 worked out at 410 nM. The Papp A→B at 120 min, 10 μM in series [1] was 13.6 ×10⁻⁶ cm/s.

As to `CCCCC1(CCCC)CN(c2ccccc2)c2cc(SC)c(OCC(O)C(=O)O)cc2S(=O)(=O)C1` (single isomer, unassigned) [Example 10, 3-((3,3-dibutyl-7-(methylthio)-1,1-dioxido-5-phenyl-2,3,4,5-tetrahydro-1,5-benzothiazepin-8-yl)oxy)-2-hydroxypropanoic acid], the IC50 at Human LBAT was 379 nM. This compound came in with an apparent permeability from apical to basolateral (Papp A→B) at 120 min, 10 μM in series [1] of 2.1 ×10⁻⁶ cm/s.

As to `CCCCC1(CCCC)CN(c2ccccc2)c2cc(SC)c(OCC(O)C(=O)O)cc2S(=O)(=O)C1` (single isomer, unassigned) [Example 11, 3-((3,3-dibutyl-7-(methylthio)-1,1-dioxido-5-phenyl-2,3,4,5-tetrahydro-1,5-benzothiazepin-8-yl)oxy)-2-hydroxypropanoic acid], the IC50 at Human LBAT stood at 613 nM.

On to `CCCCC1(CC)CN(c2ccccc2)c2cc(SC)c(OCCC(=O)O)cc2S(=O)(=O)C1` (single isomer, unassigned) [Example 13, 3-((3-butyl-3-ethyl-7-(methylthio)-1,1-dioxido-5-phenyl-2,3,4,5-tetrahydro-1,5-benzothiazepin-8-yl)oxy)propanoic acid], for which, at Human LBAT, the half-inhibitory concentration (IC50) was 489 nM. In series [1], this compound yielded an apical-to-basolateral permeability (Papp A→B) at 120 min, 10 μM of 10.3 ×10⁻⁶ cm/s.

On to `CCCCC1(C)CN(c2ccccc2)c2cc(SC)c(OCCC(=O)O)cc2S(=O)(=O)C1` (single isomer, unassigned) [Example 24, 3-((3-butyl-3-methyl-7-(methylthio)-1,1-dioxido-5-phenyl-2,3,4,5-tetrahydro-1,5-benzothiazepin-8-yl)oxy)propanoic acid], for which the IC50 at Human LBAT was 596 nM. The apparent permeability from apical to basolateral (Papp A→B) at 120 min, 10 μM in series [1] turned out to be 22.5 ×10⁻⁶ cm/s.

Take `CCCCC1(CCCC)CN(c2ccccc2)c2cc(Br)c(OCCC(=O)O)cc2S(=O)(=O)C1` [Example 4, 3-((7-Bromo-3,3-dibutyl-1,1-dioxido-5-phenyl-2,3,4,5-tetrahydro-1,5-benzothiazepin-8-yl)oxy)propanoic acid]: at Human LBAT, the IC50 came to 375 nM. Moreover, the Papp A→B at 120 min, 10 μM in series [1] amounted to 2.2 ×10⁻⁶ cm/s.

Take `CCCCC1(CCCC)CN(c2ccccc2)c2cc(SC)c(OCCC(=O)O)cc2S(=O)(=O)C1` [Example 15, 3-((3,3-dibutyl-7-(methylthio)-1,1-dioxido-5-phenyl-2,3,4,5-tetrahydro-1,5-benzothiazepin-8-yl)oxy)propanoic acid]: the IC50 on Human LBAT stood at 1930 nM. For the same compound, in series [1], the apical-to-basolateral permeability (Papp A→B) at 120 min, 10 μM came out at 9.7 ×10⁻⁶ cm/s.

In the case of `CCCCC1(CC)CN(c2ccccc2)c2cc(SC)c(OCC(C)(F)C(=O)O)cc2S(=O)(=O)C1` (stereo not shown) [Example 34, 3-((3-butyl-3-ethyl-7-(methylthio)-1,1-dioxido-5-phenyl-2,3,4,5-tetrahydro-1,5-benzothiazepin-8-yl)oxy)-2-fluoro-2-methylpropanoic acid], the IC50 on Human LBAT was 28 nM. In addition, the Papp A→B at 120 min, 10 μM in series [1] was found to be 5.4 ×10⁻⁶ cm/s.
